Data published in US9211310B2, “Use of a Chinese medicine composition in preparing medicaments for treating secondary prevention of myocardial infarction” (TASLY PHARMACEUTICAL GROUP CO., LTD, priority 2010, dated 2015).

Test system: patients after acute myocardial infarction
Assay: Life quality, Seattle Angina Questionnaire (SAQ), same clinical trial
Assay type: in vivo, human
Settings: 1 month after treatment
Text: 3508 patients who were in accordance with the diagnostic standards of AMI for 28 days to 2 years and differentiated as Qi deficiency and blood stagnation syndrome by TCM were studied. 0.5 g Chinese medicine composition prepared by the method of EXAMPLE 1 (Coded as QSYQ) was administrated half an hour after meal, 3 times per day.
There were 19 questions in the Seattle angina questionnaire (SAQ), including 5 parts: physical limitation (PL), anginal stability (AS), anginal frequency (AF), treatment satisfaction (TS) and disease perception (DP). After being given necessary explanation by doctors, the questions were answered independently by patients.
They included the overall survival time, angina pectoris score, TCM symptom score and life quality score, where angina pectoris score, TCM symptom score and life quality score were evaluated at randomization, in 1st, 3rd, 6th, 9th, 12th month after treatment and 18th month after follow-up.
All evaluation results of SAQ were described during the period of observation, and Wilcoxon rank sum test was used for inter-group comparison.
The evaluation results in the SAQ were depicted in different observations, and inter-group comparison was tested by Wilcoxon Rank-sum test.

CC(=O)Oc1ccccc1C(=O)O [Control group, aspirine]
SAQ 2nd question: Clearly increased, % of cases (FAS): (0.92%) | SAQ 2nd question: Clearly increased, cases (FAS): 16 | SAQ 2nd question: Clearly reduced, % of cases (FAS): (16.50%) | SAQ 2nd question: Clearly reduced, cases (FAS): 287 | SAQ 2nd question: Same, % of cases (FAS): (49.05%) | SAQ 2nd question: Same, cases (FAS): 853 | SAQ 2nd question: Slightly increased, % of cases (FAS): (3.05%) | SAQ 2nd question: Slightly increased, cases (FAS): 53 | SAQ 2nd question: Slightly reduced, % of cases (FAS): (30.48%) | SAQ 2nd question: Slightly reduced, cases (FAS): 530 | SAQ 3rd question: 1-2 times per week, % of cases (FAS): (30.48%) | SAQ 3rd question: 1-2 times per week, cases (FAS): 530 | SAQ 3rd question: 1-3 times per day, % of cases (FAS): (3.05%) | SAQ 3rd question: 1-3 times per day, cases (FAS): 53 | SAQ 3rd question: <1 time per week, % of cases (FAS): (16.50%) | SAQ 3rd question: <1 time per week, cases (FAS): 287 | SAQ 3rd question: No onset, % of cases (FAS): (0.00%) | SAQ 3rd question: No onset, cases (FAS): 0 | SAQ 3rd question: ≧3 times per week, % of cases (FAS): (49.05%) | SAQ 3rd question: ≧3 times per week, cases (FAS): 853 | SAQ 3rd question: ≧4 times per day, % of cases (FAS): (0.92%) | SAQ 3rd question: ≧4 times per day, cases (FAS): 16 | SAQ Question 1-3: Mildly limited, number of patients (FAS): 126 | SAQ Question 1-3: Mildly limited, percent of patients (FAS): (7.23%) | SAQ Question 1-3: Moderately limited, number of patients (FAS): 34 | SAQ Question 1-3: Moderately limited, percent of patients (FAS): (1.95%) | SAQ Question 1-3: Not limited, number of patients (FAS): 1261 | SAQ Question 1-3: Not limited, percent of patients (FAS): (72.39%) | SAQ Question 1-3: Other reasons, number of patients (FAS): 9 | SAQ Question 1-3: Other reasons, percent of patients (FAS): (0.52%) | SAQ Question 1-3: Severely limited, number of patients (FAS): 5 | SAQ Question 1-3: Severely limited, percent of patients (FAS): (0.29%) | SAQ Question 1-3: Slightly limited, number of patients (FAS): 307 | SAQ Question 1-3: Slightly limited, percent of patients (FAS): (17.62%) | SAQ Question 1-4: Mildly limited, number of patients (FAS): 349 | SAQ Question 1-4: Mildly limited, percent of patients (FAS): (20.05%) | SAQ Question 1-4: Moderately limited, number of patients (FAS): 159 | SAQ Question 1-4: Moderately limited, percent of patients (FAS): (9.13%) | SAQ Question 1-4: Not limited, number of patients (FAS): 618 | SAQ Question 1-4: Not limited, percent of patients (FAS): (35.50%) | SAQ Question 1-4: Other reasons, number of patients (FAS): 12 | SAQ Question 1-4: Other reasons, percent of patients (FAS): (0.69%) | SAQ Question 1-4: Severely limited, number of patients (FAS): 35 | SAQ Question 1-4: Severely limited, percent of patients (FAS): (2.01%) | SAQ Question 1-4: Slightly limited, number of patients (FAS): 568 | SAQ Question 1-4: Slightly limited, percent of patients (FAS): (32.62%) | SAQ Question 1-5: Mildly limited, number of patients (FAS): 315 | SAQ Question 1-5: Mildly limited, percent of patients (FAS): (18.09%) | SAQ Question 1-5: Moderately limited, number of patients (FAS): 196 | SAQ Question 1-5: Moderately limited, percent of patients (FAS): (11.26%) | SAQ Question 1-5: Not limited, number of patients (FAS): 648 | SAQ Question 1-5: Not limited, percent of patients (FAS): (37.22%) | SAQ Question 1-5: Other reasons, number of patients (FAS): 10 | SAQ Question 1-5: Other reasons, percent of patients (FAS): (0.57%) | SAQ Question 1-5: Severely limited, number of patients (FAS): 32 | SAQ Question 1-5: Severely limited, percent of patients (FAS): (1.84%) | SAQ Question 1-5: Slightly limited, number of patients (FAS): 540 | SAQ Question 1-5: Slightly limited, percent of patients (FAS): (31.02%) | SAQ Question 1-9: Mildly limited, % of cases (FAS): (16.68%) | SAQ Question 1-9: Mildly limited, cases (FAS): 284 | SAQ Question 1-9: Moderately limited, % of cases (FAS): (21.02%) | SAQ Question 1-9: Moderately limited, cases (FAS): 358 | SAQ Question 1-9: Not limited, % of cases (FAS): (2.88%) | SAQ Question 1-9: Not limited, cases (FAS): 49 | SAQ Question 1-9: Other reasons, % of cases (FAS): (6.17%) | SAQ Question 1-9: Other reasons, cases (FAS): 105 | SAQ Question 1-9: Severely limited, % of cases (FAS): (41.93%) | SAQ Question 1-9: Severely limited, cases (FAS): 714 | SAQ Question 1-9: Slightly limited, % of cases (FAS): (11.33%) | SAQ Question 1-9: Slightly limited, cases (FAS): 193 | SAQ 2nd question: Clearly increased, % of cases (PP): (0.54%) | SAQ 2nd question: Clearly increased, cases (PP): 8 | SAQ 2nd question: Clearly reduced, % of cases (PP): (16.75%) | SAQ 2nd question: Clearly reduced, cases (PP): 248 | SAQ 2nd question: Same, % of cases (PP): (49.63%) | SAQ 2nd question: Same, cases (PP): 735 | SAQ 2nd question: Slightly increased, % of cases (PP): (2.90%)
